From ChEMBL document CHEMBL6109114, “Design, synthesis, and biological evaluation of 4-(2-fluorophenoxy)pyridine derivatives as novel FLT3-ITD inhibitors” (Eur J Med Chem, 2025)
The source made the active and inactive calls. The calls are words filed in the database; no cut-off is given here.

Columns and labels:
BaF3 [1] = assay: Antiproliferative activity against wild type mouse BaF3 cells assessed as inhibition of cell growth measured after 3 days by celltiter-glo luminescent cell viability assay; format: functional, cell-based; settings: BaF3, 72 h
[2] = target: Receptor-type tyrosine-protein kinase FLT3 (Homo sapiens, UniProt P36888); assay: Inhibition of FLT3 (unknown origin) using Fluorescein-Poly GT as substrate preincubated for 10 mins followed by substrate addition and measured after 30 mins in presence of ATP by mobility shift assay
[3] = Metabolic stability in Beagle dog liver microsomes assessed as intrinsic clearance at 1 uM measured up to 60 mins in presence of NADPH regenerating system by LC-MS/MS analysis; format: ADME, Canis lupus familiaris, Microsome; settings: read-out: CLH
MOLM-13 [4] = assay: Induction of apoptosis in human MOLM-13 cells assessed as viable cells at 0.1 uM incubated for 48 hrs by Annexin V-FITC/PI staining based flow cytometry analysis (reference value: 91.9%); format: functional; settings: read-out: Activity
MOLM-13 [5] = assay: Antiproliferative activity against human MOLM-13 cells harbouring FLT3-ITD assessed as inhibition of cell growth measured after 3 days by celltiter-glo luminescent cell viability assay; format: functional, cell-based; settings: MOLM-13, 72 h
MOLM-13 [6] = assay: Inhibition of STAT5 phosphorylation in human MOLM-13 cells at 0.2 uM measured after 2 hrs by Western blot analysis relative to control; format: cell-based
[7] = Antiproliferative activity against non-FLT3 expressing human OCI-Ly1 cells assessed as inhibition of cell growth measured after 3 days by celltiter-glo luminescent cell viability assay; format: functional, cell-based; settings: OCI-Ly1, 72 h
[8] = target: Receptor-type tyrosine-protein kinase FLT3 (Homo sapiens, UniProt P36888, ITD); assay: Inhibition of FLT3 ITD mutant (unknown origin) using Fluorescein-Poly GT as substrate preincubated for 10 mins followed by substrate addition and measured after 30 mins in presence of ATP by mobility shift assay
A549 = assay: Antiproliferative activity against non-FLT3 expressing human A549 cells assessed as inhibition of cell growth measured after 3 days by celltiter-glo luminescent cell viability assay; format: functional, cell-based; settings: A549, 72 h
[9] = target: Vascular endothelial growth factor receptor 2 (Homo sapiens, UniProt P35968); assay: Inhibition of VEGFR2 (unknown origin) using Fluorescein-Poly GT as substrate preincubated for 10 mins followed by substrate addition and measured after 30 mins in presence of ATP by mobility shift assay
CYP2D6 = CYP2D6 (Homo sapiens, UniProt P10635); assay: Inhibition of CYP2D6 in human liver microsomes using dextromethorphan as substrate at 10 uM incubated for 10 mins in presence of NADPH by LC-MS/MS analysis relative to control; format: ADME, Microsome; settings: probe dextromethorphan
CYP2C19 = CYP2C19 (Homo sapiens, UniProt P33261); assay: Inhibition of CYP2C19 in human liver microsomes using S-mephenytoin as substrate at 10 uM incubated for 10 mins in presence of NADPH by LC-MS/MS analysis relative to control; format: ADME, Microsome; settings: probe S-mephenytoin
[10] = Metabolic stability in human liver microsomes assessed as parent compound remaining at 1 uM measured after 60 mins in presence of NADPH regenerating system by LC-MS/MS analysis; format: ADME, Microsome; settings: read-out: Stability
MOLM-13 [11] = assay: Induction of apoptosis in human MOLM-13 cells assessed as necrotic cells at 0.1 uM incubated for 48 hrs by Annexin V-FITC/PI staining based flow cytometry analysis (reference value: 0.077%); format: functional
[12] = target: Mast/stem cell growth factor receptor Kit (Homo sapiens) (UniProt P10721); assay: Inhibition of human c-Kit assessed as remaining activity at 1 uM by Eurofins-DiscoverX assay relative to control
MOLM-13 [13] = assay: Induction of apoptosis in human MOLM-13 cells assessed as necrotic cells at 0.3 uM incubated for 48 hrs by Annexin V-FITC/PI staining based flow cytometry analysis (reference value: 0.077%); format: functional
[14] = Metabolic stability in Beagle dog liver microsomes assessed as parent compound remaining at 1 uM measured after 60 mins by LC-MS/MS analysis; format: ADME, Canis lupus familiaris, Microsome; settings: read-out: Stability
[15] = AUC (0 to infinity) in mouse at 10 mg/kg, po; format: ADME, organism-based; settings: in vivo
[16] = Oral bioavailability in mouse at 10 mg/kg; format: ADME, organism-based; settings: in vivo
[17] = Cmax in mouse at 5 mg/kg, iv; format: ADME, organism-based; settings: in vivo
MOLM-13 [18] = assay: Induction of apoptosis in human MOLM-13 cells assessed as late apoptotic cells at 1 uM incubated for 48 hrs by Annexin V-FITC/PI staining based flow cytometry analysis (reference value: 3.10%); format: functional
[19] = target: Cyclin-dependent kinase 1/cyclin B1 (Homo sapiens) (UniProt P06493+P14635); assay: Inhibition of human CDK1/CyclinB1 at 1 uM by Eurofins-DiscoverX assay; format: protein-complex assay
[20] = target: Vascular endothelial growth factor receptor 3 (Homo sapiens, UniProt P35916); assay: Inhibition of FLT4 (unknown origin) using Fluorescein-Poly GT as substrate preincubated for 10 mins followed by substrate addition and measured after 30 mins in presence of ATP by mobility shift assay
MOLM-13 [21] = assay: Induction of apoptosis in human MOLM-13 cells incubated for 48 hrs by Annexin V-FITC/PI staining based flow cytometry analysis; format: functional, cell-based; settings: dose 0.1-1 µM
[22] = Metabolic stability in Sprague-Dawley rat liver microsomes assessed as half life at 1 uM measured up to 60 mins in presence of NADPH regenerating system by LC-MS/MS analysis; format: ADME, Microsome
[23] = AUC (0 to infinity) in mouse at 5 mg/kg, iv; format: ADME, organism-based; settings: in vivo
[24] = AUC (0 to t) in mouse at 5 mg/kg, iv; format: ADME, organism-based; settings: in vivo
[25] = Clearance in mouse at 5 mg/kg, iv; format: ADME, organism-based; settings: in vivo
MOLM-13 [26] = assay: Inhibition of STAT5 phosphorylation in human MOLM-13 cells measured after 2 hrs by Western blot analysis; format: cell-based; settings: dose 0.01-1 µM
MOLM-13 [27] = assay: Induction of cell cycle arrest in human MOLM-13 cells assessed as accumulation of cells at G2 phase at 0.3 uM incubated for 48 hrs (reference value: […]); format: functional
MOLM-13 [28] = assay: Induction of apoptosis in human MOLM-13 cells assessed as viable cells at 1 uM incubated for 48 hrs by Annexin V-FITC/PI staining based flow cytometry analysis (reference value: 91.9%); format: functional; settings: read-out: Activity
[29] = target: CDK6/cyclin D3 (Homo sapiens) (UniProt P30281+Q00534); assay: Inhibition of human CDK6/cyclinD3 at 1 uM by Eurofins-DiscoverX assay; format: protein-complex assay
[30] = Metabolic stability in human liver microsomes assessed as half life at 1 uM measured up to 60 mins in presence of NADPH regenerating system by LC-MS/MS analysis; format: ADME, Microsome
[31] = Tmax in mouse at 5 mg/kg, iv; format: ADME, organism-based; settings: in vivo
CYP3A4 = CYP3A4 (Homo sapiens, UniProt P08684); assay: Inhibition of CYP3A4 in human liver microsomes using midazolam as substrate at 10 uM incubated for 10 mins in presence of NADPH by LC-MS/MS analysis relative to control; format: ADME, Microsome; settings: probe midazolam
BaF3 [32] = assay: Antiproliferative activity against mouse BaF3 cells harbouring FLT3-ITD-D835V mutant assessed as inhibition of cell growth measured after 3 days by celltiter-glo luminescent cell viability assay; format: functional, cell-based; settings: BaF3, 72 h
[33] = AUC (0 to t) in mouse at 10 mg/kg, po; format: ADME, organism-based; settings: in vivo

Receptor-type tyrosine-protein kinase FLT3 (Homo sapiens, UniProt P36888, ITD), sequence (P36888 whole entry, looked up, stated change not applied): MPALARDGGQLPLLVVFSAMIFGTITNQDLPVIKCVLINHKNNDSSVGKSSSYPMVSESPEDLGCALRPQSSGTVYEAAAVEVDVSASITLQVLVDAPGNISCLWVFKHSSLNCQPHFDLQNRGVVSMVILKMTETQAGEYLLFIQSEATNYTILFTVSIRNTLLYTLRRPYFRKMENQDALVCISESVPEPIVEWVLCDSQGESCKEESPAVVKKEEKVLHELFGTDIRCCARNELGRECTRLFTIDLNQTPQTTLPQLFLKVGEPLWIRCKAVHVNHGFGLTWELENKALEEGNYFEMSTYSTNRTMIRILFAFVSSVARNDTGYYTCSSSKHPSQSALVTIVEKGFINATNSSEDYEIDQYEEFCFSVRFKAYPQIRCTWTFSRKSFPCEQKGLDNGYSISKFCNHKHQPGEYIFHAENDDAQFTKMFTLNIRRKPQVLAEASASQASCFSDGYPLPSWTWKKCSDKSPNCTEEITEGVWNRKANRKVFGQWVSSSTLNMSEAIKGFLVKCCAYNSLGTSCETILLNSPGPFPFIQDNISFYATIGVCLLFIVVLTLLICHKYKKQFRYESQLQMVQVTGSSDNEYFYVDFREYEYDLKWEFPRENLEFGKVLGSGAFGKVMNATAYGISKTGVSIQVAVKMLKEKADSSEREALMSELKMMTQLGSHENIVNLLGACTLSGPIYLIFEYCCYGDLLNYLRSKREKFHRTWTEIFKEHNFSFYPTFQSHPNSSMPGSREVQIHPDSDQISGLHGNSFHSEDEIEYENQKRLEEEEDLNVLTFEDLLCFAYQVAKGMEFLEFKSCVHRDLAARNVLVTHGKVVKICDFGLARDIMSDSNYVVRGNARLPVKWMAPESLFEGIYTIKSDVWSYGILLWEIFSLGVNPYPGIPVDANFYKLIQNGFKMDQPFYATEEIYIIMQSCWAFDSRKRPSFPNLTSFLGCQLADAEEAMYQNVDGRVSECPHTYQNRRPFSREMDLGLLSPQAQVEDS
Receptor-type tyrosine-protein kinase FLT3 (Homo sapiens, UniProt P36888), sequence (P36888 whole entry): as the sequence (P36888 whole entry, looked up, stated change not applied) above
Vascular endothelial growth factor receptor 2, sequence (P35968 whole entry): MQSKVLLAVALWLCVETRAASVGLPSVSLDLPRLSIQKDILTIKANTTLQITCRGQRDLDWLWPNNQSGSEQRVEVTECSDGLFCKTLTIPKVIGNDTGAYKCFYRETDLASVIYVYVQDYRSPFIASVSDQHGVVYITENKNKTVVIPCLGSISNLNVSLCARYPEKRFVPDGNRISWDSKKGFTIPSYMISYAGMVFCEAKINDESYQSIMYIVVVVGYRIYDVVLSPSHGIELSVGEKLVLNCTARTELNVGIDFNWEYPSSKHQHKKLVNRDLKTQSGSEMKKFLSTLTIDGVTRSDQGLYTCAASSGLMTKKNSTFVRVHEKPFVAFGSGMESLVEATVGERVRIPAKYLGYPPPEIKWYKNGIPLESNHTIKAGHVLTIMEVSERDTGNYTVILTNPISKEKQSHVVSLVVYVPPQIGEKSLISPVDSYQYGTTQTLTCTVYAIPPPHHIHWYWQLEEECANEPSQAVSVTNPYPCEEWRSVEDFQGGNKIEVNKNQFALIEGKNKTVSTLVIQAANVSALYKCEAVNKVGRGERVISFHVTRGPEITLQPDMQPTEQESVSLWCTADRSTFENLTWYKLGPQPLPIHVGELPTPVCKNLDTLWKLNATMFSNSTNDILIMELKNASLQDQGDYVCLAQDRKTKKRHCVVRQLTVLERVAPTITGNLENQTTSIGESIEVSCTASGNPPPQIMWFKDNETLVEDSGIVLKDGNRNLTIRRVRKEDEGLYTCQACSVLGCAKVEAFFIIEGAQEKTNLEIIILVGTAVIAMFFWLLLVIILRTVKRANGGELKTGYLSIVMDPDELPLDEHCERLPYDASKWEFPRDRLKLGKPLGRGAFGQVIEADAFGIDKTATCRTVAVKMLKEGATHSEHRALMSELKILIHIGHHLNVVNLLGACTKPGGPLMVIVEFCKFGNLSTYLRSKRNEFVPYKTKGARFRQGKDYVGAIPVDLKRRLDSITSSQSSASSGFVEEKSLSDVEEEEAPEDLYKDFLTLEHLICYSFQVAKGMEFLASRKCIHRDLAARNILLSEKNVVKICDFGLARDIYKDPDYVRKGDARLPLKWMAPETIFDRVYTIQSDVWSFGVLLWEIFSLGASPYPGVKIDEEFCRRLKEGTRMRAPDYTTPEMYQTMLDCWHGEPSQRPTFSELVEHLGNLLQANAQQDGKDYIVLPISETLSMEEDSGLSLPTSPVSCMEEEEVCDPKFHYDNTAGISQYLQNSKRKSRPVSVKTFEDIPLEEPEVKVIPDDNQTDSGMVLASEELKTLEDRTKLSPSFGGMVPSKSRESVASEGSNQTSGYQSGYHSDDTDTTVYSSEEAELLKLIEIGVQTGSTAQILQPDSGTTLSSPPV
CYP2C19, sequence (P33261 whole entry): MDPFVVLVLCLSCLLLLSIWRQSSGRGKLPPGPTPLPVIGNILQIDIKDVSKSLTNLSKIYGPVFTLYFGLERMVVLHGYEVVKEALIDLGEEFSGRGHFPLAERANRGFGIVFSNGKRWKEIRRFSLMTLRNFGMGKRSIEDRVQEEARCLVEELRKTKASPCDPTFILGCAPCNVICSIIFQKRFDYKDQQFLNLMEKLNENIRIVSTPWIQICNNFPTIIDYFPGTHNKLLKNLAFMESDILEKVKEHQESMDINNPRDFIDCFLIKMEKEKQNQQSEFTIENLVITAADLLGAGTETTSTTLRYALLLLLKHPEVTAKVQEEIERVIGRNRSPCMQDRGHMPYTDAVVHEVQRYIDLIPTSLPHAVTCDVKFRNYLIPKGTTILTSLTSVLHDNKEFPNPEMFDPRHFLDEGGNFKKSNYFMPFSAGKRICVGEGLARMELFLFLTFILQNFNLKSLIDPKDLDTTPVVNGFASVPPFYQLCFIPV
Mast/stem cell growth factor receptor Kit (Homo sapiens), sequence (P10721 whole entry): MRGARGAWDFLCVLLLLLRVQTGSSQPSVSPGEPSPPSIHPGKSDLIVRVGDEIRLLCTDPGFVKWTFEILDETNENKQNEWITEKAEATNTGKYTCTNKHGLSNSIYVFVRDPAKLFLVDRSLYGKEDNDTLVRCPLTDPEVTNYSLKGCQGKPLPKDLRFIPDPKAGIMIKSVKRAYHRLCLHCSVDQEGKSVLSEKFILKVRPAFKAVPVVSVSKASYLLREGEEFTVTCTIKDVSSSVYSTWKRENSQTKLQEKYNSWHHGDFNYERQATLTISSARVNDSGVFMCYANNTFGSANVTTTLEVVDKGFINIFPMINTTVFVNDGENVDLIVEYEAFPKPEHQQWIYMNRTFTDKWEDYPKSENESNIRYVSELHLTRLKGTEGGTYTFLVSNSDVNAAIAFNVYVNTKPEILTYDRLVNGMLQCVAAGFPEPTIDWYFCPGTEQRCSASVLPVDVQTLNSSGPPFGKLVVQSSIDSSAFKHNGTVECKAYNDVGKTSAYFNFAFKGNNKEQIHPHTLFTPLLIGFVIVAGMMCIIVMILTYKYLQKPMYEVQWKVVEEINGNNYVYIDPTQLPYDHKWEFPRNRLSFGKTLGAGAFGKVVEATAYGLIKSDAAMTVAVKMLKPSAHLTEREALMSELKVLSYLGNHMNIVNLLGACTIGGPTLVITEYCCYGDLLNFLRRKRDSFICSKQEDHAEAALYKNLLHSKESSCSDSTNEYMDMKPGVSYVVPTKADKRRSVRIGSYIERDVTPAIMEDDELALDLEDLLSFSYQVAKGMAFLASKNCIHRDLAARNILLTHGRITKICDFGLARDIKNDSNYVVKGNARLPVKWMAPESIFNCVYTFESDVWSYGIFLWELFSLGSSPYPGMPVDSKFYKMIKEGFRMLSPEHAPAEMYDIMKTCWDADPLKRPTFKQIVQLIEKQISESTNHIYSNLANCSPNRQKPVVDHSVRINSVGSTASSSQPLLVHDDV
CYP2D6, sequence (P10635 whole entry): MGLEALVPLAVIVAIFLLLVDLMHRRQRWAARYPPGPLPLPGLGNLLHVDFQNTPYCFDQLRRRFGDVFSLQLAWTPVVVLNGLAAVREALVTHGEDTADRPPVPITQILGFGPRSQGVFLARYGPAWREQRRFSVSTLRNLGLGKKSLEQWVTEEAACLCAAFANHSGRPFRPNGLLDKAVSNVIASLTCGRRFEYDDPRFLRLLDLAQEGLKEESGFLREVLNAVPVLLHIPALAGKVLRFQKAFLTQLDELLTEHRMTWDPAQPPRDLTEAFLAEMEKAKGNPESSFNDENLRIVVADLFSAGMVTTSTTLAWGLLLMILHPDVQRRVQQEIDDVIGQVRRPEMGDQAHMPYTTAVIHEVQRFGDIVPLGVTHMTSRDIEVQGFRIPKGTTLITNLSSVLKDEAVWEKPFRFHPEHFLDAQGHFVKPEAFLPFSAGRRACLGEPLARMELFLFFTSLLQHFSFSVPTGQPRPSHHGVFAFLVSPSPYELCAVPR
CYP3A4, sequence (P08684 whole entry): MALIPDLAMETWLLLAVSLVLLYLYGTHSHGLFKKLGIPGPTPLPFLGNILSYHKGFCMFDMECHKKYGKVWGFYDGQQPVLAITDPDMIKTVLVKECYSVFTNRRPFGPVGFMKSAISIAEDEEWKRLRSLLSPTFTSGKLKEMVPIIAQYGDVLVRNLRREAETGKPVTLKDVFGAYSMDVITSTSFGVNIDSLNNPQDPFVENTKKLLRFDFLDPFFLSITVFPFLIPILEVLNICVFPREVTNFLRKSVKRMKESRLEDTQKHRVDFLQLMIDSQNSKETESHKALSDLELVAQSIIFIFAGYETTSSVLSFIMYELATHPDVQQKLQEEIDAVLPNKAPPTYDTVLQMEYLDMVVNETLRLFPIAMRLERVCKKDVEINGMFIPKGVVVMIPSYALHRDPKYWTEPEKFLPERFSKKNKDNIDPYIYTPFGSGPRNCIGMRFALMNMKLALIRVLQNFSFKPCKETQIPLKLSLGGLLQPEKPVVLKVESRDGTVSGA

IC50 (BaF3 [1]): > 10000 nM | IC50 [2]: 475 nM | microsomal CLint at 1 µM [3]: 11.1 µL/min/mg | IC50 (MOLM-13 [5]): 140 nM | IC50 [8]: 153 nM | IC50 (A549): > 30000 nM | IC50 [9]: 131 nM | inhibition at 10 min, 10 µM (CYP2D6): 19.8% | inhibition at 10 min, 10 µM (CYP2C19): 36.9% | remaining at 1 h, 1 µM [10]: 66.3% | Activity [12]: 88% | remaining at 1 h, 1 µM [14]: 103% | AUC(0-inf) [15]: 1430 ng·h/mL | bioavailability [16]: 32.4% | Cmax [17]: 443 ng/mL | inhibition [19]: inactive | IC50 [20]: 166 nM | half-life at 1 µM [22]: 1.95 h | AUC(0-inf) [23]: 2210 ng·h/mL | AUC(0-t) [24]: 2030 ng·h/mL | clearance [25]: 38.8 mL/min/kg | inhibition [29]: inactive | half-life at 1 µM [30]: 1.82 h | Tmax [31]: 0.25 h | inhibition at 10 min, 10 µM (CYP3A4): 34.2% | IC50 (BaF3 [32]): 7800 nM | AUC(0-t) [33]: 1400 ng·h/mL
Compound: Cc1cc(=O)n(-c2cc(Cl)ccc2F)nc1C(=O)Nc1ccc(Oc2ccnc(NC(=O)N3CC(O)C3)c2)c(F)c1
viability at 0.1 µM (MOLM-13 [4]): 90.6% | inhibition (MOLM-13 [6]): 100% | IC50 [7]: 12300 nM | Activity (MOLM-13 [11]): 0.062% | Activity (MOLM-13 [13]): 0.068% | Activity (MOLM-13 [18]): 36.2% | Activity (MOLM-13 [21]): Dose-dependent-effect | inhibition (MOLM-13 [26]): Dose-dependent-effect | Activity (MOLM-13 [27]): 8.51% | viability at 1 µM (MOLM-13 [28]): 33.5%
